Values joined by “and” are separate entries in the source; they are usually repeats but may differ in a detail not shown here. Identical values can stand only once. “Also recorded” adds a separate entry of the source.

The test system of test [1] is Posterior Pituitary GABAA Receptor. The test is described as follows: Whole-terminal patch clamp recording of GABA responses in posterior pituitary nerve terminals. It counts as cell-based. The settings on record: for Effect on GABA-activated Cl- current / GABAA receptor responses of nerve terminals (in words): posterior pituitary nerve terminals. As to the method: (§1) Measurements were made in nerve terminals for responses to GABA alone or GABA+steroid. The ratios were computed as (GABA+steroid)/GABA, and the geometric means were computed for the indicated number of ratios. The * indicates statistical significance at the level of P<0.05. […] The single-channel activity was determined from Po using all-points histograms such as those shown in FIGS. 4B and 4D, as described in METHODS. The GABA concentration was […] for the first two columns and 1 mM for the last column.

The test system is the same in test [2]. The test is described as follows: Desensitization of the GABAA receptor during sustained GABA application, whole-terminal recordings. It counts as cell-based. Further details: Time constant of desensitization, GABA with steroid: dose or concentration left out as unconfirmed. Conditions: for Desensitization Time-Constant Ratio: (GABA+steroid)/GABA, geometric mean, allopregnanolone 100 nM, estradiol-17β 100 nM; for Time constant of desensitization, GABA with steroid: sustained application of GABA in the presence of steroid, same terminals as controls.
Description: FIGS. 3A and 3B are whole terminal recordings showing the GABA desensitizing effect of certain neuroactive steroids on the GABAA receptor. […] 3B illustrates the effect of allopregnanolone.
Sustained application of GABA desensitized the receptor with a time constant of 9.5±0.5 sec (n=3). […] Similar results were obtained with allopregnanolone; the average time constant for desensitization was 9.1±1.8 sec with GABA alone and 10.2±1.7 sec (n=3) with GABA and allopregnanolone.
as §1

For test [3] the test system is unchanged. As to the kind of experiment: GABA-gated Cl- single-channel currents in outside-out patches excised from posterior pituitary nerve terminals. It counts as cell-based. The protocol:
as §1

Test [4] in a line: Treatment and prevention of hypertension in borderline hypertensive patients (Example 2). It counts as in vivo, human. Conditions: daily high physiological dosage, after one year, versus placebo; expected. An excerpt:
An experiment is run with study group of patients who are borderline hypertensive. Half of the group is given daily a high physiological dosage of allepregnanolone. The remaining patients are placed on placebo.

Test [5] in a line: Oral contraceptive containing neuroactive steroid in premenopausal women (Example 3). It counts as in vivo, human. The settings on record: progesterone containing oral contraceptive with neuroactive steroid, two years; expected. The source says:
An experiment is run with a study group of premenopausal women. Half of the group is placed on a progesterone containing oral contraceptive which also contains a neuroactive steroid such as allepregnanolone. The other half of the study group is given the same oral contraceptive but without neuroactive steroid. The study is run for two years and the group is regularly evaluated for its cardiovascular status.

On to `CC(=O)[C@H]1CC[C@H]2[C@@H]3CC[C@H]4C[C@H](O)CC[C@]4(C)[C@H]3CC[C@]12C` [Allopregnanolone, 3α-hydroxy-5α-pregnan-20-one], for which, in test [1], the “Effect on GABA-activated Cl- current / GABAA receptor responses of nerve terminals (in words)” value is given as “potentiated; also recorded: strongly enhanced”. Besides, in test [2], the “Desensitization Time-Constant Ratio” value worked out at 1.14 and the “Time constant of desensitization, GABA with steroid” value (“Time constant … with steroid” for short) was 10.2 ± 1.7 s. Also, the “Effect on GABA-activated single-channel activity (in words)” value in test [3] was “more channel activity than GABA alone; also recorded: clearly increased”. The “Blood pressure relative to control” value in test [4] was “significantly lower blood pressure relative to control”. Moreover, in test [5], the “Cardiovascular status compared to control” value was “significantly better cardiovascular status compared to control”.
Regarding `CC(=O)[C@H]1CC[C@H]2[C@@H]3CC[C@H]4C[C@H](O)CC[C@]4(C)[C@H]3C(=O)C[C@]12C` [Alphaxalone, alphaxalone], the “Time constant … with steroid” value in test [2] is 8.9 ± 0.5 s.
Turning to `C[C@]12CC[C@@H]3c4ccc(O)cc4CC[C@H]3[C@@H]1CC[C@@H]2O` [Estradiol-17β], the “GABA responses as % of controls” value in test [1] (estradiol-17β 100 nM, n=6) turned out to be 78%. Besides, the “Effect on GABA-activated Cl- current / GABAA receptor responses of nerve terminals (in words)” value in test [1] is listed as “weak inhibitory effect”. Also, in test [2], the “Desensitization Time-Constant Ratio” value is reported as 0.90 and the “Time constant … with steroid” value amounted to 7.9 ± 1.9 s. The “Effect on rate of desensitization (in words)” value in test [2] (sustained GABA application) was “failed to alter the rate of desensitization”. The “Effect on GABA-activated single-channel activity (in words)” value in test [3] is on record as “went down slightly”.
With `NCCCC(=O)O` [GABA], the “Time constant of desensitization, GABA alone” value in test [2] (sustained application of GABA alone (controls of the alphaxalone, allopregnanolone and estradiol-17β experiments, in this order)) was 9.5 ± 0.5 s and 9.1 ± 1.8 s and 9.2 ± 0.2 s.
